In patent US20240058310A1, “METHODS OF TREATING DISEASES AND DISORDERS ASSOCIATED WITH CALCIUM ION SIGNALING” (Temple University-Of the Commonwealth System of Higher …, priority 2022, published 2024):

Tests used:
melanoma metastasis = conditions: mice; literature reports; cited from earlier work
[1] = tested on: SOCE in B16N murine melanoma cells; experiment: SOCE measurement (Fura2, Tg then Ca2+ re-addition) in B16N cells; format: cell-based; conditions: B16N control, UV2, UV5, O1C44; 2 μM IA65
Protocol: (§1) UV Exposure—Cells were plated on glass coverslips for 24 hours before changing to PBS. Lids were replaced with a thin layer of taut plastic wrap before irradiating with a broadband UV spectrum containing 35% UVA and 65% UVB (with peak emission at 313 nm in the UVB range (De Fabo, E. C., et al, 2004, Cancer Research, 64:6372-6376)). Cells received a total UV dose of 175 J/m^2 over 90 seconds at a rate of 1.94 W/m^2. Approximately 80% of the melanoma cells survive this exposure. Cells were passaged 1:10 every 3 days and cultured under growth optimal conditions for the indicated time period (see Cell Culture below) before subsequent experimentation.
(§2) SOCE Measurement—Cells grown on glass coverslips were incubated in a cation-safe buffer (107 mM NaCl, 7.2 mM KCl, 1.2 mM MgCl2, 11.5 mM Glucose, 20 mM HEPES-NaOH, 1 mM CaCl2, pH 7.2) and loaded with Fura2-acetoxymethylester (Fura2-AM; 2 μM) for 30 min at 24° C. as previously described (Go, C. K., et al, 2019, Science Signaling, 12; Hooper, R., et al., 2015, Molecular and Cellular Biology, 35:2790-2798). Cells were washed and allowed to de-esterify for a minimum of 30 min at 24° C. […] Ca^2+ measurements were taken using a Leica DMI 6000B fluorescence microscope controlled by Slidebook software (Intelligent Imaging Innovations, Denver, CO). […]

[2] = tested on: SOCE in WM983 human melanoma cells; experiment: SOCE measurement (Fura2, Tg then Ca2+ re-addition) in WM983 cells; format: cell-based
Protocol: as §1
(§3) SOCE Measurement—Cells grown on glass coverslips were incubated in a cation-safe buffer (107 mM NaCl, 7.2 mM KCl, 1.2 mM MgCl2, 11.5 mM Glucose, 20 mM HEPES-NaOH, 1 mM CaCl2, pH 7.2) and loaded with Fura2-acetoxymethylester (Fura2-AM; 2 μM) for 30 min at 24° C. as previously described (Go, C. K., et al, 2019, Science Signaling, 12; Hooper, R., et al., 2015, Molecular and Cellular Biology, 35:2790-2798). Cells were washed and allowed to de-esterify for a minimum of 30 min at 24° C. Following de-esterification, cells were treated with 2 μM Thapsigargin (SERCA inhibitor) for 10 minutes prior to imaging. Ca^2+ measurements were taken using a Leica DMI 6000B fluorescence microscope controlled by Slidebook software (Intelligent Imaging Innovations, Denver, CO). Fluorescence emission at 505 nm was monitored in response to excitation at alternating 340 nm and 380 nm wavelengths at a frequency of 0.67 Hz; intracellular Ca^2+ measurements are shown at 340/380 nm ratios obtained from groups (2-45 for patient samples, 35-45 for established cell lines) of single cells.

[3] = tested on: SOCE in patient melanoma surgical explant cells; experiment: SOCE measurement in cells from patient surgical explants; format: cell-based, human; conditions: patient explant cells treated with drug in presence of Tg, 15 minutes
Protocol: as §3
Isolation of Cells from Patient Surgical Explants—Tissue was incubated in DMEM containing Liberase® TL (Roche Applied Science; 37° C., 30 min). Following incubation, tissue was cut using a sharp razor and dissociated through 50 μM Medicon screens (Becton Dickinson Biosciences, San Jose, CA; 2 min). […]

[4] = tested on: B16N murine melanoma cells; experiment: Matrigel transwell invasion assay, B16N cells; format: cell-based; design: invasion (Matrigel transwell): dose or concentration left out as unconfirmed
Protocol: (§4) Transwell Migration Assays—Transwell migration assays were performed as previously described (Hooper, R., et al., 2015, Molecular & Cellular Biology, 35:2790-2798). Briefly, Matrigel® transwell chambers (Corning, Bedford, MA) were hydrated with serum-free OptiMEM for 2 hours (37° C., 5% CO2) prior to the addition of 2,500 cells/well. Growth optimal media was placed on the bottom of the chamber prior to incubation (20 hours; 37° C., 5% CO2). After incubation, media was removed, and edges were cleaned before methanol fixation and staining with crystal violet (0.5%, 2 min). Images were taken by EVOS cell imager and quantified on ImageJ.

[5] = tested on: WM983 human melanoma cells; experiment: Matrigel transwell invasion assay, WM983 cells; format: cell-based; design: invasion (Matrigel transwell): dose or concentration left out as unconfirmed
Protocol: as §4

[6] = tested on: patient melanoma surgical explant cells; experiment: Matrigel transwell invasion assay, patient explant cells; format: cell-based, human; conditions: TAK475 10 μM, compactin 2 μM, IA65 2 μM or OSMI1 40 μM; 20 hours
Protocol: as §4
Isolation of Cells from Patient Surgical Explants—Tissue was incubated in DMEM containing Liberase® TL (Roche Applied Science; 37° C., 30 min). Following incubation, tissue was cut using a sharp razor and dissociated through 50 μM Medicon screens (Becton Dickinson Biosciences, San Jose, CA; 2 min). Tissue samples were resuspended in DFD media (DMEM, 20% FBS; 500 ug/ml DNAse I, Sigma, St. Louis, MO) and passed through an 18-gauge syringe to break up clumps of cells before filtration (70 μm, Corning, Glendale, AZ, centrifugation and resuspension in DMEM (2% FBS; 1% Gentamycin) for 3 days before use.

[7] = tested on: WM983 human melanoma cells; experiment: Scratch (wound) migration assay, WM983 cells; format: cell-based; conditions: 2 μM IA65, 0-, 10-, 20-hour
Protocol: Migration Assay—Cells were plated on glass coverslips (Ibidi, Fitchburg, WI) overnight to form a complete monolayer before “wounding” with a p20 pipette tip. Coverslips were placed in an incubation chamber (37° C.; 5% CO2) and monitored by confocal microscopy (Leica SP8 Laser Scanning Microscope). Z-stack brightfield images were obtained every 20 minutes for 20 hours; the % of the wound that was refilled over time was calculated using ImageJ.

[8] = tested on: melanoma cells (WM983, B16N); experiment: Viability assay (Trypan Blue); format: cell-based; conditions: 2 μM IA65 overnight, control, UV2, UV5 cells
Protocol: Viability Assays—500,000 cells were plated in 24 well plates overnight in the absence or presence of 2 μM IA65. Cells were then trypsinized with 0.25% Trypsin-EDTA for 10 minutes at 37° C. Following, cells were treated with 0.4% Trypan Blue and placed in a Bio-Rad slidereader and the number of stained vs. unstained cells compared.

[9] = tested on: SOCE in UACC257 human melanoma cells; experiment: SOCE measurement (Fura2, Tg then Ca2+ re-addition) in UACC257 cells; format: cell-based; conditions: non-SOCE suppressed UACC257 UV5 cells; overnight treatment
Protocol: as §1, §2

**Q.** Which melanoma metastasis (melanoma metastasis) does the source give for `O=C(O)Cc1cccc(OCCCN(Cc2cccc(C(F)(F)F)c2Cl)CC(c2ccccc2)c2ccccc2)c1` [GW3965] here?
**A.** Its melanoma metastasis is “suppressed”.

**Q.** Which results are given for `O=C(O)c1ccc(Nc2nc(C(F)(F)F)c(-c3ccccc3)s2)cc1` [IA65, 4-((5-Phenyl-4-(trifluoromethyl)thiazol-2-yl)amino)benzoic acid]?
**A.** SOCE (reversal of SOCE suppression) [1]: reversal of SOCE suppression; UV-induced SOCE suppression ([2]; UV2 and UV5 WM983 cells, 2 μM IA65, 15 minutes): strikingly reversed UV-induced SOCE suppression; SOCE ([2]; untreated (non-irradiated) WM983 cells, 2 μM IA65, 15 minutes): no effect; change in SOCE in patient samples [3]: No significant effect; invasion through Matrigel transwell ([4]; B16N control, UV2, UV5, O1C44, 2 μM IA65): inhibition of invasiveness; invasion through Matrigel in a transwell assay ([5]; WM983 control, UV2, UV5, 2 μM IA65, 20 hours): failed to invade; invasion in vitro of patient cells [6]: diminished invasion; UV-induced enhanced cell migration (scratch) [7]: did not have UV-induced enhanced cell migration; cell viability [8]: no effect

**Q.** Which “invasion (Matrigel transwell)” value ([4]; SOCE-suppressed B16N cells, siRNA targeting OGT) does the source give for `COc1ccccc1[C@@H](NS(=O)(=O)c1ccc2[nH]c(=O)ccc2c1)C(=O)N(Cc1ccco1)Cc1cccs1` [OSMI1] here?
**A.** Its value is “reduced invasion”.

**Q.** What about the “invasion (Matrigel transwell)” value ([5]; SOCE-suppressed WM983 cells, siRNA targeting OGT) of the same compound?
**A.** The value was “reduced invasion”.

**Q.** And the “invasion in vitro of patient cells” value [6]?
**A.** The value was “diminished invasion”.

**Q.** For `O=S(=O)(c1ccccc1)N(CC(F)(F)F)c1ccc(C(O)(C(F)(F)F)C(F)(F)F)cc1` [T0901317], which melanoma metastasis (melanoma metastasis) is on record?
**A.** The melanoma metastasis was “suppressed”.

**Q.** Which SOCE ([2]; UV5 WM983 cells, 24 hr treatment) does the source give for `COc1cccc([C@H]2O[C@H](CC(=O)N3CCC(CC(=O)O)CC3)C(=O)N(CC(C)(C)COC(C)=O)c3ccc(Cl)cc32)c1OC` [TAK475] here?
**A.** The SOCE was “markedly enhanced”.

**Q.** And the SOCE ([2]; untreated WM983 cells, cholesterol synthesis inhibitor overnight)?
**A.** Its SOCE is “neither agent significantly affected SOCE”.

**Q.** What about the SOCE [9] of the same compound?
**A.** Its SOCE is “no change”.

**Q.** And the “change in SOCE in patient samples” value [3]?
**A.** Its value is “significantly enhanced SOCE”.

**Q.** And the “UV-induced increases in melanoma invasiveness through Matrigel” value ([5]; UV5 WM983 cells, transwell, 20 hours)?
**A.** The value was “abrogated UV-induced increases in melanoma invasiveness”.

**Q.** What about the “invasiveness through Matrigel” value ([5]; untreated (control) WM983 cells) of the same compound?
**A.** The value was “no effect on invasiveness”.

**Q.** And the “invasion in vitro of patient cells” value [6]?
**A.** The value was “diminished invasion”.
